Assay results as given in patent US20240425464A1, “Substituted Monohydrazides as Potent Antifungal Agents” (University of Kentucky Research Foundation, priority 2023, published 2024).
Values after ≈ are worked out from the molar mass of the structure shown. Values joined by “and” are separate entries in the source; they are usually repeats but may differ in a detail not shown here. Equal values may be shown once. Read-outs that look alike come from different tables or passages of the source.

What was measured:
Format in all cases: cell-based, Candida albicans
[1] = tested on: C. albicans ATCC 10231 (strain A); assay: MIC determination by in vitro antifungal assay (CLSI broth dilution); settings: strain A = C. albicans ATCC 10231, no visible growth, 48 h at 35° C.
In short: (§1)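 Twofold dilutions spanning 0.06–31.3 μg/mL were incubated with fungi for 48 h at 35° C in MOPS-buffered RPMI 1640 (pH 7.0), following modified CLSI M27-A3 and M38-A2 methods. Yeast cells were grown overnight in YPD, set to OD600 0.12 (~1×10^6 CFU/mL), then diluted 1:100.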

[2] = tested on: C. albicans ATCC MYA-2310 (E); assay: MIC determination by in vitro antifungal assay; settings: strain E = C. albicans ATCC MYA-2310
In short: as §1

[3] = tested on: C. albicans ATCC 64124 (B); assay: MIC determination by in vitro antifungal assay
In short: as §1

[4] = tested on: C. albicans ATCC 90819 (D); assay: MIC determination by in vitro antifungal assay
In short: as §1

[5] = tested on: C. albicans ATCC MYA-2876 (C); assay: MIC determination by in vitro antifungal assay; settings: strain C = C. albicans ATCC MYA-2876(S)
In short: as §1

[6] = tested on: C. albicans ATCC MYA-1003 (G); assay: MIC determination by in vitro antifungal assay; settings: strain G = C. albicans ATCC MYA-1063(R) (footnote), MYA-1003 in text
In short: as §1

[7] = tested on: C. albicans ATCC MYA-1237 (F); assay: MIC determination by in vitro antifungal assay; settings: strain F = C. albicans ATCC MYA-1237(R)
In short: as §1

[8] = Candida albicans, ATCC10231, 48 h, read-out: MIC
[9] = Candida albicans, read-out: MIC
[10] = Candida albicans, ATCC64124, strain B = C. albicans ATCC 64124, read-out: MIC
[11] = Candida albicans, ATCC90819, strain D = C. albicans ATCC 90819(R), read-out: MIC
[12] = strain B = C. albicans ATCC 64124
[13] = strain D = C. albicans ATCC 90819(R)

Row | Structure (SMILES) | MIC [1, 8] [µg/mL] | MIC [2, 9] [µg/mL] | MIC [3, 10] [µg/mL] | MIC [4, 11] [µg/mL] | MIC [5, 9] [µg/mL] | MIC [6, 9] [µg/mL] | MIC [7, 9] [µg/mL] | MIC [1] [μg/mL^−1] | MIC [2] [μg/mL^−1] | MIC [3, 12] [μg/mL^−1] | MIC [4, 13] [μg/mL^−1] | MIC [5] [μg/mL^−1] | MIC [6] | MIC [7] [μg/mL^−1]
1 | O=C(NNc1cc(F)cc(F)c1)c1ccccn1 [Compound 2i] | ≤ 0.06 | 0.98 (≈ 3.93 µM) | 0.98 (≈ 3.93 µM) | 0.98 (≈ 3.93 µM) | 0.98 (≈ 3.93 µM) | 0.49 (≈ 1.97 µM) | 1.95 (≈ 7.82 µM) | – | – | – | – | – | – | –
2 | C[C@@H]1[C@H](O)[C@@H](C)/C=C/C=C/C=C/C=C/C=C/C=C/C=C/[C@H](O[C@@H]2O[C@H](C)[C@@H](O)[C@H](N)[C@@H]2O)C[C@@H]2O[C@](O)(C[C@@H](O)C[C@@H](O)[C@H](O)CC[C@@H](O)C[C@@H](O)CC(=O)O[C@H]1C)C[C@H](O)[C@H]2C(=O)O [AmB, amphotericin B, reference compound] | – | – | – | – | – | – | – | 1.95 | 0.98 | 1.95 | 0.98 | 1.95 | 0.98 μg/mL^−1 and 1.95 μg/mL^−1 | 1.95
3 | O=C(NNc1cccc(F)c1)c1cccc(F)n1 [Compound 5a] | – | – | – | – | – | – | – | 0.49 | 1.95 | 0.49 | 7.8 | 3.9 | 1.95 μg/mL^−1 | 1.95
4 | COc1ccc(NNC(=O)c2nc(F)ccc2F)cc1 [Compound 8f] | 1.95 (≈ 6.98 µM) | 1.95 (≈ 6.98 µM) | 1.95 (≈ 6.98 µM) | 1.95 (≈ 6.98 µM) | 1.95 (≈ 6.98 µM) | 0.98 (≈ 3.51 µM) | 0.98 (≈ 3.51 µM) | – | – | – | – | – | – | –
5 | O=C(NNc1ccc(F)cc1)c1ncc(F)cc1F [Compound 7d] | 0.98 (≈ 3.67 µM) | 3.9 (≈ 14.6 µM) | 1.95 (≈ 7.3 µM) | 1.95 (≈ 7.3 µM) | 1.95 (≈ 7.3 µM) | 0.98 (≈ 3.67 µM) | 1.95 (≈ 7.3 µM) | – | – | – | – | – | – | –
6 | COc1ccc(NNC(=O)c2ncc(F)cc2F)cc1 [Compound 7f] | 1.95 (≈ 6.98 µM) | 1.95 (≈ 6.98 µM) | 1.95 (≈ 6.98 µM) | 1.95 (≈ 6.98 µM) | 1.95 (≈ 6.98 µM) | 0.98 (≈ 3.51 µM) | 0.98 (≈ 3.51 µM) | – | – | – | – | – | – | –
7 | O=C(NNc1ccc(F)cc1F)c1ccc(F)cn1 [Compound 3g] | 0.49 (≈ 1.83 µM) | 1.95 (≈ 7.3 µM) | 1.95 (≈ 7.3 µM) | 1.95 (≈ 7.3 µM) | 1.95 (≈ 7.3 µM) | 0.98 (≈ 3.67 µM) | 1.95 (≈ 7.3 µM) | – | – | – | – | – | – | –
8 | COc1cccc(NNC(=O)c2cnccn2)c1 [Compound 9c] | 0.49 (≈ 2.01 µM) | 1.95 (≈ 7.98 µM) | 0.98 (≈ 4.01 µM) | 1.95 (≈ 7.98 µM) | 1.95 (≈ 7.98 µM) | 0.98 (≈ 4.01 µM) | 1.95 (≈ 7.98 µM) | – | – | – | – | – | – | –
9 | O=C(NNc1ccc(F)cc1)c1ccc(F)cc1F [Compound 1d] | 0.49 (≈ 1.84 µM) | 3.9 (≈ 14.6 µM) | 7.8 (≈ 29.3 µM) | 1.95 (≈ 7.32 µM) | 7.8 (≈ 29.3 µM) | 1.95 (≈ 7.32 µM) | 1.95 (≈ 7.32 µM) | – | – | – | – | – | – | –
10 | O=C(NNc1cccc(F)c1)c1ncc(F)cc1F [Compound 7a] | – | – | – | – | – | – | – | 0.24 | 1.95 | 0.98 | 3.9 | 1.95 | 1.95 μg/mL^−1 | 3.9
11 | O=C(NNc1cc(F)ccc1F)c1cnccn1 [Compound 9h] | 0.24 (≈ 0.959 µM) | > 31.3 | 7.8 (≈ 31.2 µM) | 3.9 (≈ 15.6 µM) | 3.9 (≈ 15.6 µM) | 1.95 (≈ 7.79 µM) | 3.9 (≈ 15.6 µM) | – | – | – | – | – | – | –
12 | O=C(NNc1cc(F)cc(F)c1)c1ccc(F)cc1F [Compound 1i] | 3.9 (≈ 13.7 µM) | 15.6 (≈ 54.9 µM) | 15.6 (≈ 54.9 µM) | 15.6 (≈ 54.9 µM) | 15.6 (≈ 54.9 µM) | 15.6 (≈ 54.9 µM) | 7.8 (≈ 27.4 µM) | – | – | – | – | – | – | –
13 | O=C(NNc1cccc(F)c1)c1ccc(Br)cn1 [Compound 4a] | – | – | – | – | – | – | – | 0.49 | 3.9 | 0.49 | 3.9 | 1.95 | 0.98 μg/mL^−1 | 3.9
14 | COc1cccc(NNC(=O)c2ncc(F)cc2F)c1 [Compound 7c] | 0.98 (≈ 3.51 µM) | 3.9 (≈ 14 µM) | 1.95 (≈ 6.98 µM) | 7.8 (≈ 27.9 µM) | 3.9 (≈ 14 µM) | 1.95 (≈ 6.98 µM) | 3.9 (≈ 14 µM) | – | – | – | – | – | – | –
15 | COc1ccc(NNC(=O)c2ccccn2)cc1 [Compound 2f] | 0.12 (≈ 0.493 µM) | 0.98 (≈ 4.03 µM) | 0.98 (≈ 4.03 µM) | 0.49 (≈ 2.01 µM) | 1.95 (≈ 8.02 µM) | 0.98 (≈ 4.03 µM) | 0.98 (≈ 4.03 µM) | – | – | – | – | – | – | –
16 | O=C(NNc1ccc(F)cc1)c1cnccn1 [Compound 9d] | 0.24 (≈ 1.03 µM) | 7.8 (≈ 33.6 µM) | 1.98 (≈ 8.53 µM) | 0.98 (≈ 4.22 µM) | 7.8 (≈ 33.6 µM) | 1.95 (≈ 8.4 µM) | 0.98 (≈ 4.22 µM) | – | – | – | – | – | – | –
